Data from patent US7579432B2, “Cyclic peptides as G-protein-coupled receptor antagonists” (Promics Pty Limited, priority 2001, dated 2009).
Bridge positions count the residues as written; N and C are the ends. Square brackets hold non-standard residues; d marks the D form. Peptide text beside a SMILES is read from it. * marks the point of attachment. Hydrocinnamoyl = O=C(CCc1ccccc1)*; dCha = N[C@H](CC1CCCCC1)C(=O)O; Orn = NCCC[C@H](N)C(=O)O

Tested on: neutropenia caused by i.v. LPS
Assay: LPS-induced neutropenia (endotoxaemia model)
Assay type: in vivo, rat
Conditions: topical in 50% DMSO/50% H2O, 60 min before LPS 1 mg/kg i.v.
Method: The in vivo pharmacological properties of cyclic antagonists were examined following topical dermal administration. A model of endotoxaemia was used, in which 1 mg/kg Escherichia coli […] (LPS; serotype 55:B5, Sigma, USA, stored at 100 mg ml^−1 in dH2O, 4° C.), was injected i.v into a rat, resulting in acute changes in circulating PMN levels and blood pressure. These parameters were measured in the presence and absence of C5aR antagonists (1 mg/kg i.v or 50 mg/kg/rat topically). […] Female Wistar rats weighing between 200-250 g were used for in vivo testing of all C5a receptor antagonists. Rats were anaesthetized using the procedure described above, and transferred on to a heating pad to ensure that body temperature was maintained throughout the experiment. A catheter was inserted in the femoral vein, secured with a suture and flushed with 100 μL of heparinised saline. […] All agents infused i.v were injected over a 2 min period, and were followed with a subsequent injection of 100 μL of saline to ensure complete delivery of the drug. Whole blood samples (0.1 mL) were collected from the tail vein at the time of drug and LPS or C5a administration. Samples were collected at −15, 0, 5, 10, 15, 30, 60, 90, 120 and 150 min relative to the injection of LPS (zero time), and placed in tubes containing heparin (500 Units/mL). To isolate PMNs, 100 μL of blood was layered on to 200 μL of Histopaque 1077 (Sigma U.S.A.) solution and centrifuged at 400×g for 30 min min at room temperature (25° C.). The supernatant layer of platelet-rich plasma, the monocyte and lymphocyte interface and the separation layer of Histopaque were removed and discarded, leaving the PMN and red blood-cell rich layer. […] The number of PMNs was counted on a haemocytometer. The number of cells at each time point was calculated as a percentage of the total number of cells at time zero, prior to complement challenge or LPS. […] Circulating PMN levels were monitored for 150 min following LPS injection, and the percentage change in PMN levels from zero time, when LPS was injected, was calculated.

Row | SMILES | neutropenia response to i.v. LPS
1 | N=C(N)NCCC[C@@H]1NC(=O)[C@H](Cc2c[nH]c3ccccc23)NC(=O)[C@@H](CC2CCCCC2)NC(=O)[C@@H]2CCCN2C(=O)[C@@H](NC(=O)CCc2ccccc2)CCCNC1=O [Compound 17, HC[OP-dCha-WR]] (Hydrocinnamoyl-[Orn]P[dCha]WR; lactam 1-C) | inhibited the neutropenia response
2 | CC(=O)N[C@@H](Cc1ccccc1)C(=O)N[C@H]1CCCNC(=O)[C@H](CCCNC(N)=O)NC(=O)[C@H](Cc2c[nH]c3ccccc23)NC(=O)[C@@H](CC2CCCCC2)NC(=O)[C@@H]2CCCN2C1=O [Compound 45, AcF[OPdChaW-Cit]] | inhibited the neutropenia response
